Measurements from paper PMC9137037 (Frontiers in Oncology, 2022).
Where no end group is shown, it is not given here.

Experiments:
cynomolgus monkeys = test: ELISA antibody titers, monkey study No.00213519; format: in vivo, Macaca fascicularis; conditions: monkey 2nd set, 25, 100, 250 µg on days 1, 15, 29, 43, serum days 29, 43, 57, APi2568 as capture
Experimental: The non-human primate studies were carried out by the Charles River Laboratories (Ashland, OH USA). All the cynomolgus monkeys (Macaca fascicularis of Chinese origin) were obtained from Charles River Laboratories (Houston, TX, USA). In brief, the animals were approximately 2–4 years old and at the body weight between 2.2 and 3.1 kg at the initial dosing. The animals were kept at the temperature between 19°C and 24°C, humidity 30%–70%, and with 12 h light and 12 h dark light cycle. The Good manufacturing practice (GMP)-manufactured vaccine was used in the non-human primate study. […] Similar to mouse and dog dosing preparation, after the emulsion was prepared, a drop test was performed on each time of dosing to confirm that the emulsion had been prepared properly. […] All the animals’ body weights were monitored weekly after receiving. […]
Enzyme-linked immunosorbent assay (ELISA) was performed per our lab standard procedure. […] After washing, the antibody was detected using 50 μl of 0.15% H2O2 in 24 mM of citric acid and 5 mM of the sodium phosphate buffer (pH5.2) with 0.5 mg/ml 2, […] (3-ethylbenzthiazole- 6-sulfonic acid, ABTS; Sigma, St. Louis, MO, USA) as the chromophore. […] Absorbance was read at 415 nm using an ELISA microplate reader (SPECTRAmax PLUS384; Molecular Devices, San Jose, CA, USA). The highest dilution at the cutoff absorbance 0.2 were determined as the antibody titer. […]

nivolumab = conditions: surface plasmon resonance; cited from earlier work
Experimental: (§1) The PD-1 amino acids 92-110 (^92[…]^101[…]^110) chosen for evaluation were selected based on the crystal structure of PD-1:PD-L1. This PD-1 sequence was synthesized as a chimeric construct with a promiscuous T-cell helper epitope derived from the measles virus fusion protein (MVF, amino acids 288-302). The specificity of the selected PD-1 peptide was determined by surface plasmon resonance spectroscopy.

rhPD-L1 = conditions: surface plasmon resonance; cited from earlier work
Experimental: as §1

beagle dogs = test: Safety observations in immunized beagle dogs; format: in vivo, dog
Experimental: In brief, the beagle dogs were purchased from Covance Research Products (Cumberland, VA, USA) and were housed in the Ohio State University Veterinarian Facility Institutional Animal Care Facility. The dogs were housed at 19°C−24°C room temperature with approximately 70% humidity, and 12 h light and 12 h dark–light cycle. The dogs’ body weights were at least 7.5 kg when they received the first immunization. […] The dogs received a total of 4 doses, immunization was done at the rear thigh with two sites of injections, the bleed was collected as indicated time points to monitor the antibody titers, and the body weight of each dog was monitored closely (see Figures 3B, C for detail).
This study was designed to monitor the kinetics of how quickly the antibody levels to MVF-PD-1(92-110) diminished after the dosing was stopped. The recall of an antibody response was also tested after re-challenge. Four beagle dogs were used in this study of MVF-PD-1(92-110) peptide cancer vaccine. Dogs #1, #2, and #3 were treated with MVF-PD-1(92-110) emulsified with nor-MDP and ISA 720 using different doses ( Figure 3A ). Dog#1 was treated with 1.0 mg low-dose peptide, dog#2 was treated with 1.5 mg medium-dose peptide, and dog #3 was treated with 3.0 mg high-dose peptide. The negative control dog #10 was only treated with the MVF peptide emulsified with nor-MDP and Montanide ISA720. Dogs were immunized 4 times designated as 1Y, 2Y, 3Y, and 4Y at Day 0, Day 35, Day 56, and 6 months after primary immunization, respectively. Blood was collected every 2 weeks, except for the first collection, which was 3 weeks after the primary immunization and 1 week after 2Y and 3Y immunization ( Figure 3B ). The sera were used to monitor the antibody titers. We monitored the beagle dogs’ body weight closely during the immunization period ( Figure 3C ).
• a) Beagle dogs were immunized with MVF-PD-1 (92-110) (3 dogs with 1 dog each at the doses of 1, 1.5, and 3 mg/dose). • b) All dogs administered with MVF-PD-1 (92-110) had high polyclonal anti-MVF-PD-1 (92-110) antibody titers. […] These injection site lesions were mostly attributed to the high volume of Montanide ISA 720 VG used in this study.

KLLSLIKGVIVHRLEGVEGPSLGAISLAPKAQIKESLRAEL [MVF-PD-1(92-110)]
anti-APi2568 antibody titers / immunogenicity (summary) (cynomolgus monkeys; listed as APi2568): high and were relatively uniform across sample collection days and between the APi2568 dose groups | anti-APi2568 antibody titers / immunogenicity (summary) (cynomolgus monkeys; listed as PD-1(92)): high immunogenicity | recognize and bind nivolumab (nivolumab): able to recognize and bind | recognize and bind rhPD-L1 (rhPD-L1): able to recognize and bind | dogs with adverse local reaction (lesions at or near the IM injection site) (beagle dogs; 1, 1.5 and 3 mg/dose, 1 dog each, lesions resolved within a few weeks after dosing ceased, mostly attributed to high volume of Montanide ISA 720 VG): Two out of three | body weight by the end of the experiment compared with the initial weight (beagle dogs; all dogs): gained some weight | induction of autoimmune responses (beagle dogs; beagle dogs): has not been observed | safety (summary) (beagle dogs; dog): safe
